According to US11685741B2, “Fluorescent probes” (University of Massachusetts, priority 2017, dated 2023):

Experiment: Metal ion sensing: UV-vis and fluorescence response to Fe2+ and other metal ions
Procedure: Selectivity and spectroscopic properties of the Rh6GD sensor were investigated to evaluate the performance of the fluorescence sensor in solution. The solution of metal ions were prepared from chloride salts of Ni^2+, Fe^3+, Cu^2+, Mn^2+, Hg^2+, Na^+, Ca^2+, Zn^2+, Ag^+, and nitrate salts of Mg^2+, K^+, Co^2+ (1 mM) in deionized water, except for Cu^2+ and Co^2+, which were dissolved in acetonitrile anhydrous. Solution of Cu^+ was freshly prepared by dissolving tetrakis(acetonitrile)copper(I) (Sigma-Aldrich) into double-distilled water. […]
(§1) The color change for Fe^2+ is readily detected visually. […]
The changes in fluorescence spectra of Rh6GD with the addition of different metal ions in H2O/THF (pH 7.32, v/v 4:1) are shown in FIG. 23. When Fe^2+ was added into the solution of Rh6GD, a large fluorescence enhancement at 549 nm was observed, induced by the complexation of Fe^2+.
Moreover, upon the addition of 1 equiv of Fe^2+ into solutions containing one of the other metal ions tested, the fluorescence was activated and the intensity increased to a level similar to that observed in the presence of Fe^2+ only (the black bars in FIG. 24).
Metal ion selectivity and spectroscopic properties of the sensor were investigated to evaluate the performance of the fluorescence sensor Rh101D. […]
as §1

Question: Which “fluorescence enhancement response to Fe^2+” value does the source give for `CCNc1cc2c(cc1C)C1(c3cc(C)c(NCC)cc3O2)c2ccccc2C(=O)N1/N=C/C=C/c1ccc(N(C)C)cc1` [Rh6GD, 2-(((1E,2E)-3-(4-(dimethylamino)phenyl)allylidene)amino)-3′,6′-bis(ethylamino)-2′,7′-dimethylspiro[isoindoline-1,9′-xanthen]-3-one] here?
Answer: 3 fold

Question: What about the emission intensity enhancement (1.0 equiv of Fe^2+, H2O/THF pH 7.32, 549 nm (Rh6GD), 743 nm (NIRh-Fret)) of the same molecule?
Answer: around 3 times
